Legend:
[1] = target: T1, recombinant human FAP (rhFAP) (Homo sapiens, UniProt Q12884); test: Inhibition of FAP-mediated digestion of FGF21 in vitro; type: biochemical
T1 construct: purchased R&D systems 3715-SE-010
T1 sequence (Q12884 1-760): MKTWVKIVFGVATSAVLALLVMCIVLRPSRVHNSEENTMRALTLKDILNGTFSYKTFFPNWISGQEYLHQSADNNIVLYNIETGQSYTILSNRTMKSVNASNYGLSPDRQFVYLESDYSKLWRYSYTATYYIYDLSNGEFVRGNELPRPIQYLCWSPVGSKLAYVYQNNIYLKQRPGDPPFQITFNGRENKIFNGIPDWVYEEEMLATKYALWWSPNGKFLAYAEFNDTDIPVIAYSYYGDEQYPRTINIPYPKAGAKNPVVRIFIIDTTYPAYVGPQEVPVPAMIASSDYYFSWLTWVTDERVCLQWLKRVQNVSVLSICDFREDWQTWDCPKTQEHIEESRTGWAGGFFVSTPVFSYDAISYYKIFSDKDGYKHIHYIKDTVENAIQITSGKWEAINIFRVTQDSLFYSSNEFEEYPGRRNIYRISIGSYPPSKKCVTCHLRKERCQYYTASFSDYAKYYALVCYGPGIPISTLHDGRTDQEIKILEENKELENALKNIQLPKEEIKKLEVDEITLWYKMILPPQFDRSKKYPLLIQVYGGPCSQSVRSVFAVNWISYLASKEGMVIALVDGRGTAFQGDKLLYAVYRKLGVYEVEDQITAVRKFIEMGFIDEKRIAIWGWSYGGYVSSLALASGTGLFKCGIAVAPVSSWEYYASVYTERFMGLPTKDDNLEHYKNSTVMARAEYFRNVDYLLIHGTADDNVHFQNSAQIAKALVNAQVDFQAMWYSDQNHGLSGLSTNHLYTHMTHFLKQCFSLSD
Protocol: Recombinant human FGF21 (rhFGF21; Cat. No. #2539-FG-025/CF, R&D systems) was incubated overnight (16 h) at 37° C. with recombinant human FAP (rhFAP; Cat. No. #3715-SE-010, R&D systems) in digestion buffer (50 mM Tris pH 7.4, 100 mM NaCl, 0.1 mg/ml bovine serum albumin). Reactions were carried out at final concentrations of 1000 ng/mL hFGF21 and 400, 800 or 1200 ng/mL rhFAP in a volume of 100 μL. For SDS-PAGE analysis, after incubation each sample received immediately 4× Laemmli protein sample buffer (Cat. No. #161-0747, Bio-Rad) supplemented with 0.1 ml […]/10 ml aliquot and then boiled at 95° C. during 10 min. An aliquot of 15 μL of each sample were then loaded onto a reducing 20% Tris-Tricine SDS-PAGE gel. For immunoblot analysis, proteins were separated on SDS-PAGE gels and transferred to PVDF membranes (Cat. No. #1620177, Bio-Rad). […] Proteins were detected using the ECL Western Blotting Substrate (Cat. No. #32106, Thermo Fisher Scientific) and visualized using a ChemiDoc™ Imaging System (Biorad) and Image lab software v5.2.1 build 11. […]
Additionally, the IC50 for FAP-mediated proteolytic cleavage of FGF21, was determined in the using a serial dilution of compound 13 (an exemplary compound).

[2] = target: T2, recombinant mouse FAPα (rmFAPα) (Mus musculus, UniProt P97321); test: FAPα enzymatic exopeptidase (dipeptidase) activity assay; type: biochemical; conditions: 1 μM test compound; Z-Gly-Pro-AMC substrate; read-out: rmFAPα (% exo inh @ 1 μM)
T2 construct: purchased R&S system (so in the source)
T2 sequence (P97321 1-761): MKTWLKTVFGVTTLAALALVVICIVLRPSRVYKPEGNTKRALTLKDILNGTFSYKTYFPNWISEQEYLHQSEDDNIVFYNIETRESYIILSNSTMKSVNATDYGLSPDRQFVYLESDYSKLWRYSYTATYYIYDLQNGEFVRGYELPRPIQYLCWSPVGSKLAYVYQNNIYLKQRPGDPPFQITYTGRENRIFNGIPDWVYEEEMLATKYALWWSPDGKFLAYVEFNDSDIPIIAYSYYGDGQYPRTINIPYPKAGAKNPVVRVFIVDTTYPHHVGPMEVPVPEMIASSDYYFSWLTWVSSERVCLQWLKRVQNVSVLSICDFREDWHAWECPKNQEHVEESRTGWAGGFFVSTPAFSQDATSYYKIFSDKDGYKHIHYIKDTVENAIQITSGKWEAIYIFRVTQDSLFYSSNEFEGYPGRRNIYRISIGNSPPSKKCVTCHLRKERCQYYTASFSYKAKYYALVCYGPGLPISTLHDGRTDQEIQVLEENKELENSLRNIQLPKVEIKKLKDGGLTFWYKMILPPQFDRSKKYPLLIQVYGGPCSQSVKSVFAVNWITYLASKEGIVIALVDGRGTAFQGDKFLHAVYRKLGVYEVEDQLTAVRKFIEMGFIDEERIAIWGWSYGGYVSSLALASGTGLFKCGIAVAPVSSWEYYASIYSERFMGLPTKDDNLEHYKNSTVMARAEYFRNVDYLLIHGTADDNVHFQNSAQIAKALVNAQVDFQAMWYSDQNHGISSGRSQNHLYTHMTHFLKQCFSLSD
Protocol: FAPα enzymatic exopeptidase (dipeptidase) activity assay. […] 7-Amino-4-Methylcoumarin (AMC) release was detected by measuring fluorescence at Ex/Em 380/460 nm using a Multifunction Microplate Reader (Synergy 4, Biotek). All measurements were carried out in duplicate. […] For the calculations, the average measurements from reactions containing only vehicle and substrate, without enzyme, were used as a blank and were subtracted from the rest of the measurements. Percent inhibition was calculated using the average measurements from reactions containing vehicle, enzyme, and substrate as the maximum of enzymatic activity. Measurements were performed as a single point.

SMILES | inhibition of proteolytic processing of rhFGF21 by rhFAP (intact rhFGF21, Western blot) ([1]; 100 and 1000 nM, 16 h at 37° C.) | IC50 for FAP-mediated proteolytic cleavage of FGF21 ([1]; serial dilution, densitometry) | inhibition at 1 µM [2] [%]
N#C[C@@H]1CC(F)(F)CN1C(=O)CNC(=O)c1ccncc1-c1ccccc1 [Compound 13, (S)—N-(2-(2-cyano-4,4-difluoropyrrolidin-1-yl)-2-oxoethyl)-3-phenylisonicotinamide] | intact form of rhFGF21 is preserved | nanomolar range | 
N#C[C@@H]1CC(F)(F)CN1C(=O)CNC(=O)c1c[nH]c(=O)c2ccccc12 [Example 1, (S)—N-(2-(2-cyano-4,4-difluoropyrrolidin-1-yl)-2-oxoethyl)-1-oxo-1,2-dihydroisoquinoline-4-carboxamide] |  |  | > 50
